Data: patent publication US20060199867A1, “Ambroxol for the treatment of chronic pain” (Boehringer Ingelheim Pharma GmbH, priority 2002, published 2006)
Counter-ions that a name gives are not always drawn.

Tests used:
[1] = tested on: formalin-induced nociceptive behaviors (flinches, licking); test: Formalin Paw Test; assay type: in vivo; details: Rattus norvegicus, po, male rats, dose at which control values are inhibited by 50%
Protocol: Formalin Paw Test (Ref: Carlton S M and Zhou S: Attenuation of formalin-induced nociceptive behaviors following local peripheral injection of gabapeptin. Pain 76, 201-207, 1998). Male rats (Chbb: THOM) weighing 250-300 grams are used. 20 μl of a 2% formaldehyde solution is injected into the plantar region of the right hind paw. Immediately after, the number of flinches (twitches of the affected hind paw) and the length of time spent licking the affected paw are recorded over a period of one hour. After 5 minutes in each case the values are grouped together into epochs. From the epoch values, time-effect curves for flinches and licking are plotted. Typically, two phases of formalin effect are observed (flinches, licking). A first phase lasting 0-10 minutes and a second phase lasting 10-60 minutes. Between the two phases the number of flinches and duration of licking fall towards 0 (interphase). From the time-effect curves the areas under the curve for the first phase and for the second phase are determined. Usually, 5 animals are used for each control, placebo and dose of substance. The results of the doses of substance are compared with those of the controls and ED50 values are calculated. The ED50 is the dose at which the control values are inhibited by 50%.

[2] = tested on: Tetrodotoxin-sensitive currents; assay type: cell-based, rat; details: read-out: IC50 tetrodotoxin-sensitive currents; neurone cultures from the posterior root ganglions of adult rats
[3] = tested on: neuropathic pain (tactile allodynia, thermal hyperalgesia); test: test models for neuropathic pain in the rat; assay type: in vivo; details: neuropathic pain models in the rat (Bennett and Xie; Seltzer et al.)
Source text: (1) Bennett G J and Xie Y-K. A peripheral mononeuropathy in rat that produces disorders of pain sensation like those seen in man. Pain 33, 87-107, […]. (2) Seltzer, Z., Dubner R. and Shir, Y. A novel behavioral model of neuropathic pain disorder. Pain 43, 205-218, 1990.

SMILES	ED50 [1] [mg/kg]	IC50 [2] [µM]	tactile allodynia [3]	thermal hyperalgesia [3]
Nc1c(Br)cc(Br)cc1CN[C@H]1CC[C@H](O)CC1 [ambroxol hydrochloride]	70	–	–	–
Nc1c(Br)cc(Br)cc1CN[C@H]1CC[C@H](O)CC1 [ambroxol, trans-4-(2-amino-3,5-dibrombenzylamino)-cyclohexanol]	–	> 100	reduced the tactile allodynia	reduced
